Laboratory results taken from patent US12522597B2, “Methods and compositions for modulating splicing” (Skyhawk Therapeutics, Inc., priority 2019, dated 2026).
pEC50: −log10 of the molar value.

What was measured:
mHTT protein = mHTT protein assay (2B7-MW1, Mesoscale Discovery); type: cell-based, human; settings: GM04724 (CAG 70/20) Huntington's disease patient lymphoblast cells, 48 hours, 2B7-MW1 MSD; read-out: HTT Potency - Protein EC50 mHTT (average)
In short: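 GM04724 Huntington's patient lymphoblasts (CAG 70/20) were treated for 48 h at 10 μM to 0.6 nM. mHTT was quantified by 2B7-MW1 MSD immunoassay, whose signal depends on polyQ expansion and HTT fragment size. Viability was run on a parallel plate by CellTiter-Glo.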

[1] = tested on: MDR1-MDCK cell monolayers; assay: MDCK-MDR1 permeability assay (BBB penetration potential); type: in vitro ADME; settings: dog, MDCK-MDR1, 120 min, 5 μM, pH 7.4
Experimental: (§1) Each determination is performed in duplicate. […] Analytical conditions are outlined below.

MDR1 = assay: as above; type: in vitro ADME; settings: dog; for efflux ratio at 120 min, 5 μM: MDCK-MDR1, pH 7.4, MDCK-MDR1: Efflux; for Papp A→B at 120 min, 5 μM: MDCK-MDR1, pH 7.4, MDCK-MDR1: Papp A-B; for Papp B→A at 120 min, 5 μM: MDCK-MDR1, pH 7.4, MDCK-MDR1: Papp B-A
Experimental: as §1

| Structure (SMILES) | pEC50 (mHTT protein) | MDCK-MDR1: % Recov A-B [1] [%] | MDCK-MDR1: % Recov B-A [1] [%] | efflux ratio at 120 min, 5 μM (MDR1) | Papp A→B at 120 min, 5 μM (MDR1) [×10⁻⁶ cm/s] | Papp B→A at 120 min, 5 μM (MDR1) [×10⁻⁶ cm/s] |
| --- | --- | --- | --- | --- | --- | --- |
| Cc1nocc1-c1ccc(-c2ccc(O[C@H]3C[C@@H]4CCC[C@@H](N4)[C@H]3F)nn2)c(O)c1 (single isomer, unassigned) [72-ENT2] | 6.30 to 7.00 | 64 | 74 | 7 | 4.67 | 34.9 |
| Cc1cc(-c2ccc(-c3ccc(O[C@H]4C[C@@H]5CCC[C@@H](N5)[C@H]4F)nn3)c(O)c2)cnn1 (single isomer, unassigned) [90-ENT2] | 6.30 to 7.00 | 101 | 97 | 34 | 1.92 | 64.6 |
| Cc1ccc(-c2ccc(-c3ccc(O[C@@H]4C[C@H]5CCC[C@H](N5)[C@@H]4F)nn3)c(O)c2)s1 (single isomer, unassigned) [100-ENT1] | 6.30 to 7.00 | 16 | 49 | 1 | 0.99 | 0.68 |
| Cn1cnc(-c2ccc(-c3ccc(O[C@H]4C[C@@H]5CCC[C@@H](N5)[C@H]4F)nn3)c(O)c2)cc1=O (single isomer, unassigned) [138-ENT2] | 6.30 to 7.00 | 92 | 91 | 32 | 1.88 | 60.7 |
| Cn1cc(-c2ccc(-c3ccc(O[C@H]4C[C@@H]5CCC[C@@H](N5)[C@H]4F)nn3)c(O)c2)c(F)n1 (single isomer, unassigned) [109-ENT2] | 7.30 to 7.80 | 51 | 80 | 4 | 6.3 | 24.5 |
| Cc1cnc(-c2ccc(-c3ccc(O[C@H]4C[C@@H]5CCC[C@@H](N5)[C@H]4F)nn3)c(O)c2)cn1 (single isomer, unassigned) [78-ENT2] | 6.30 to 7.00 | 56 | 83 | 4 | 7.09 | 30 |
| Oc1cc(-n2cccn2)ccc1-c1ccc(O[C@@H]2C[C@H]3CC[C@H](N3)[C@@H]2F)nn1 (single isomer, unassigned) [35-ENT1] | 6.30 to 7.00 | 77 | 87 | 4 | 8.31 | 32.8 |
| Cn1cc(-c2cc(O)c(-c3ccc(O[C@H]4C[C@@H]5CCC[C@@H](N5)[C@H]4F)nn3)c(F)c2)cn1 (single isomer, unassigned) [118-ENT2] | 6.30 to 7.00 | 52 | 80 | 8 | 4.5 | 36.8 |
| Cc1cc(-c2ccc(-c3ccc(O[C@H]4C[C@@H]5CCC[C@@H](N5)[C@H]4F)nn3)c(O)c2)ccn1 (single isomer, unassigned) [88-ENT2] | 7.30 to 7.80 | 51 | 71 | 4 | 5.13 | 21.5 |
| Oc1cc(-c2nnco2)c(F)cc1-c1ccc(O[C@H]2C[C@@H]3CCC[C@@H](N3)[C@H]2F)nn1 (single isomer, unassigned) [143-ENT1] | 7.00 to 7.29 | 81 | 93 | 8 | 6.56 | 55.7 |
| O=c1cc(-c2ccc(-c3ccc(O[C@@H]4C[C@H]5CCC[C@H](N5)[C@@H]4F)nn3)c(O)c2)ccn1CF (single isomer, unassigned) [106-ENT1] | 6.30 to 7.00 | 102 | 90 | 48 | 1.07 | 51 |
| Oc1cc(-c2ccccn2)ccc1-c1ccc(O[C@H]2C[C@@H]3CCC[C@@H](N3)[C@H]2F)nn1 (single isomer, unassigned) [77-ENT2] | 6.30 to 7.00 | 57 | 79 | 5 | 6.32 | 30.2 |
| Oc1cc(-c2nnco2)c(F)cc1-c1ccc(O[C@@H]2C[C@H]3CC[C@H](N3)[C@@H]2F)nn1 (stereo in doubt) [142-ENT1, 4-fluoro-2-(6-(((1S,2S,3R,5R)-2-fluoro-8-azabicyclo[3.2.1]octan-3-yl)oxy)pyridazin-3-yl)-5-(1,3,4-oxadiazol-2-yl)phenol] | 7.00 to 7.29 | 98 | 103 | 6 | 6.9 | 41.8 |
| Cn1cc(-c2cc(O)c(-c3ccc(O[C@@H]4CC5CC[C@H](N5)[C@@H]4F)nn3)cn2)cn1 (single isomer, unassigned) [63-ENT1] | 5.00 to 6.30 | 103 | 110 | 37 | 0.29 | 10.9 |
| Cc1nc(-c2ccc(-c3ccc(O[C@@H]4C[C@H]5CCC[C@H](N5)[C@@H]4F)nn3)c(O)c2)cs1 (single isomer, unassigned) [71-ENT2] | 7.30 to 7.80 | 50 | 67 | 6 | 5.78 | 33.1 |
| N#Cc1ccc(-c2ccc(O[C@@H]3C[C@H]4CC[C@H](N4)[C@@H]3F)nn2)c(O)c1 (single isomer, unassigned) [111-ENT1] | 5.00 to 6.30 | 90 | 92 | 3 | 15.6 | 44.7 |
| Cn1cc(-c2cc(O)c(-c3ccc(O[C@H]4C[C@@H]5CCC(N5)[C@H]4F)nn3)cn2)cn1 (single isomer, unassigned) [63-ENT2] | 5.00 to 6.30 | 96 | 107 | 38 | 0.26 | 9.6 |
| Oc1cc(-c2ccn3cnnc3c2)ccc1-c1ccc(O[C@@H]2C[C@H]3CCC[C@H](N3)[C@@H]2F)nn1 (single isomer, unassigned) [86-ENT1] | 6.30 to 7.00 | 89 | 93 | 46 | 0.54 | 24.7 |
| Oc1cc2nccnc2cc1-c1ccc(O[C@@H]2C[C@H]3CCC[C@H](N3)[C@@H]2F)nn1 (single isomer, unassigned) [104-ENT1] | 5.00 to 6.30 | 95 | 92 | 6 | 7.17 | 45.7 |
| Cc1ccc(-c2ccc(-c3ccc(O[C@H]4C[C@@H]5CCC[C@@H](N5)[C@H]4F)nn3)c(O)c2)o1 (single isomer, unassigned) [99-ENT2] | 6.30 to 7.00 | 16 | 55 | 1 | 6.11 | 6.02 |
| N#Cc1ccc(-c2ccc(O[C@@H]3C[C@H]4CCC[C@H](N4)[C@@H]3F)nn2)c(O)c1 (single isomer, unassigned) [110-ENT1] | 5.00 to 6.30 | 101 | 100 | 13 | 5.37 | 68.2 |
